# Assay results taken from publication PMC7879702 (Antiviral research, 2020).
# Assays:
# DENV2 [1] = type: cell-based, dengue virus; conditions: read-out: EC50, DENV2 infection
# phospho-AP2M1 (T156) = type: cell-based
# DENV [2] = type: cell-based, dengue virus; conditions: read-out: EC50, DENV infection in MDDC
# EBOV = type: cell-based, Ebola virus; conditions: read-out: EC50, EBOV infection
# VEEV (TC-83) = type: cell-based, Venezuelan equine encephalitis virus; conditions: read-out: EC50, VEEV (TC-83) infection
# DENV [3] = type: cell-based; conditions: BIKE-inducible T-REx-293 cells, doxycycline induction, 72 hours treatment
# [4] = tested on: primary human monocyte derived dendritic cells (MDDC)
# ERK2 = conditions: read-out: IC50, ERK2; cited from earlier work
# TAK1 = conditions: read-out: IC50, TAK1; cited from earlier work
# BIKE = conditions: cited from earlier work
# GAK = conditions: at 10 μM; cited from earlier work
# AAK1 = conditions: at 10 μM; cited from earlier work
# DENV2 [5] = type: cell-based, dengue virus
Compound,EC50 (DENV2 [1]) [µM],effect on AP2M1 phosphorylation (phospho-AP2M1 (T156)),effect on phospho-AP2M1 level at 10 μM (phospho-AP2M1 (T156)),EC50 (DENV [2]) [µM],EC50 (EBOV) [µM],EC50 (VEEV (TC-83)) [µM],DENV infection upon BIKE expression in drug-treated cells (DENV [3]),CC50 [4] [µM],cellular toxicity in the EBOV assay (Huh7 cells),IC50 (ERK2) [µM],IC50 (TAK1) [µM],"KINOMEscan binding, BIKE (BIKE; at 10 μM)",IC50 (BIKE; read-out: IC50 value for BIKE inhibition or binding (Discussion)) [µM],"KINOMEscan binding, GAK (GAK)","KINOMEscan binding, AAK1 (AAK1)",effect on viral infection at 6 hours postinfection (DENV2 [5])
COc1cc(O)c2c(c1)/C=C/C[C@H](O)[C@H](O)C(=O)/C=C\C[C@H](C)OC2=O [5Z-7-oxozeaenol],2.47,dramatic reduction in AP2M1 phosphorylation,significant reduction,0.54,4.09,2.6,partially restored,5.49,no apparent cellular toxicity within the concentration range tested,0.08,0.008,3.8 % of control,0.0038,10 % of control,13 % of control,–
C[C@@H]1C[C@@H]([C@H](O)CC2CC(=O)NC(=O)C2)C(=O)[C@@H](C)C1 [cycloheximide],–,–,–,–,–,–,–,–,–,–,–,–,–,–,–,suppressed viral infection
